# According to article PMC12064818, “A general assay platform to study protein pharmacology using ligand-dependent structural dynamics” (Nature Communications, 2025):
# Like-named read-outs stand apart in the source and are kept apart here.
# Columns and labels:
# [1] = molecular target: FLuc-C-HiBiT (firefly luciferase) (Photinus pyralis, UniProt P08659, form not given/L550V); assay: SDR assay, FLuc-C-HiBiT; details: SDR max. response, clade S
# [2] = molecular target: P. pyralis FLuc (Photinus pyralis, UniProt P08659); assay: FLuc enzymatic luminescence assay, P. pyralis FLuc; assay type: biochemical; details: FLuc enzymatic assay; for IC50: read-out: IC50 or SDR50 (mM) FLuc E
# Summary of the method: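 Runs with and without 10 µM ATP: compounds were pre-incubated with FLuc (1–10 nM, PBS pH 7.4) at ambient temperature, light-protected, for 30–60 min. Luminescence was imaged 5 min after adding 10 µM D-luciferin (final). Inhibition was scaled between DMSO neutral and no-enzyme controls.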
# [3] = molecular target: FLuc-C-NLuc (firefly luciferase) (Photinus pyralis, UniProt P08659, form not given/L550V); assay: SDR assay, FLuc-C-NLuc; details: - ATP
# [4] = molecular target: T1, NLuc (Oplophorus gracilirostris, UniProt Q9GV45, A31E/A60N/A81I/F95D/I117V/K70R/L54V/L99Q/M102K/N193R/P142E/Q151K/Q38R/Q45L/V71I/Y165I); assay type: biochemical; details: - ATP
# T1 construct: His tag (inferred from IMAC purification); made in house; host or cells: E. coli
# Description: Compounds and controls were added to plates as described in Supplementary Data 8. Nano-Glo luciferase assay reagent (Promega) was prepared fresh according to manufacturer’s protocol, filtered and added at 3 μL per well across assay plates with a BioRaptr2 dispenser. Enzyme was incubated with Nano-Glo reagent for 10 min and NLuc luminescence was read on a ViewLux CCD imager (PerkinElmer), with 1 s exposure with medium gain and 2x binning. Data were normalized to average no enzyme control as 100% enzyme inhibition and average DMSO neutral control. See Supplementary Table 4 for additional details.
# Supplementary Table 4. […]
# Sequence Param eter Value Description […]
# 5 Detector ViewLux Read plate lum inescence (Exposure = 1- 10 sec; Gain = Medium -high; Speed = Slow;
# Dispensing solution was diluted in 1X PBS, pH 7.4.
# NanoLuc luciferase (NLuc) enzym atic lum inescence assay […]
# Nano-Glo luciferase assay reagent (Prom ega, Cat # N1120) prepared according to m anufacturer’s recom m endations,
# 4 com ponents stored at -30 °C until use, and reagent prepared fresh for each assay.
# syringe filter prior to dispense.
# Sequence of FLuc-C-NLuc (firefly luciferase) (P08659 2-550 L550V, form open): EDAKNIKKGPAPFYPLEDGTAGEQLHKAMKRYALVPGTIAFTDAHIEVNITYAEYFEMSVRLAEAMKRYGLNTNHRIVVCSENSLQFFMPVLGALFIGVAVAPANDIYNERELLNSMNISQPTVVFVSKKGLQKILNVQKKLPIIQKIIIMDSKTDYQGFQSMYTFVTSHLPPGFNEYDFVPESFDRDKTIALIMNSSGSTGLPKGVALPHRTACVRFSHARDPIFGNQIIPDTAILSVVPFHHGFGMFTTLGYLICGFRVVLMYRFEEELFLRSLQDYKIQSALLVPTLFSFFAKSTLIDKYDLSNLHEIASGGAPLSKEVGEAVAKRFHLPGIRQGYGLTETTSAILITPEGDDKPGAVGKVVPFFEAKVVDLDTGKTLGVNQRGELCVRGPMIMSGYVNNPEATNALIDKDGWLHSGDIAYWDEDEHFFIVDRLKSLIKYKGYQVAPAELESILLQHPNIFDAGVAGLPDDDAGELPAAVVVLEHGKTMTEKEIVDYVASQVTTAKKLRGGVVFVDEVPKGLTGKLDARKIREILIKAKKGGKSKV
# Sequence of FLuc-C-HiBiT (firefly luciferase) (P08659 2-550 L550V, form open): as above
# T1 sequence (Q9GV45 other isoform, or with tags, fused parts or gaps with the stated changes): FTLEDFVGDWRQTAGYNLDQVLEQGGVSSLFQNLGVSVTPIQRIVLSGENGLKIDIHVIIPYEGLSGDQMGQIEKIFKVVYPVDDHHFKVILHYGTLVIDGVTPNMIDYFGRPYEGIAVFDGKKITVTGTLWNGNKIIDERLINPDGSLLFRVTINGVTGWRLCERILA
# Sequence of P. pyralis FLuc (P08659 whole entry): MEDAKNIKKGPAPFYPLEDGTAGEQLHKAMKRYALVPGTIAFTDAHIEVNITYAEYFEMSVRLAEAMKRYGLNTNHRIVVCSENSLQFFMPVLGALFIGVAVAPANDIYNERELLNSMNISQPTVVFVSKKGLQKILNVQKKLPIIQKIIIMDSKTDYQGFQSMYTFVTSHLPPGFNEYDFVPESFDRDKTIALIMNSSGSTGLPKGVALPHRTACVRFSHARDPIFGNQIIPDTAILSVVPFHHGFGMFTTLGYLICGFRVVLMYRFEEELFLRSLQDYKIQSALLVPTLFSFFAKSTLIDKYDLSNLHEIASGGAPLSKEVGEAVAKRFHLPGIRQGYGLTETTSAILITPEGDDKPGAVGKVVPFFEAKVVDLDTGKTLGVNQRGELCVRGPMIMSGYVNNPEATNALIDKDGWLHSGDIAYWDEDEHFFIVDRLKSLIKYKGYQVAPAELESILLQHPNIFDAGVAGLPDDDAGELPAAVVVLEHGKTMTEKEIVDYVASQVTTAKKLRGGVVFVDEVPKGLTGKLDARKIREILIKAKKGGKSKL
Compound,"% Activity (max response, + ATP) [1]","% Activity (max response, - ATP) [1]",Efficacy (%) FLuc E ([2]; Clade S follow-up),pIC50 or pSDR50 FLuc E ([2]; Clade S follow-up),IC50 ([2]; Clade S follow-up),Efficacy (%) FLuc-C-NLuc SDR (-ATP) [3],Efficacy (%) NLuc (- ATP) [4],pIC50 or pSDR50 FLuc E [2],IC50 [2]
Cc1ccc(NC(=O)C2CCN(C(=O)c3ncn4c3COC(c3ccc(F)cc3)C4)CC2)c(F)c1 (centres unmarked) [NCGC00449944-01],140.99%,7.55%,-69.67%,4.96,0.0111 mM,0.00%,0.00%,,
CC(CNC(=O)C1CCN(C(=O)c2ncn3c2COC(c2ccc(F)cc2)C3)CC1)c1ccccc1 (centres unmarked) [NCGC00449827-01],15.49%,0.00%,-13.06%,,,0.00%,0.00%,,
O=C(NCc1ccc(F)cc1F)C1CCN(C(=O)c2ncn3c2COC(c2ccc(F)cc2)C3)CC1 (centres unmarked) [NCGC00449819-01],18.59%,0.00%,-12.89%,,,0.00%,0.00%,,
O=C(Nc1ccc(F)cc1)C1CCN(C(=O)c2ncn3c2COC(c2ccc(F)cc2)C3)CC1 (centres unmarked) [NCGC00449939-01],72.23%,0.00%,-56.35%,5.01,0.00988 mM,0.00%,0.00%,,
COc1ccc(C2Cn3cnc(C(=O)N4CCC(C(=O)NC5CCCCCC5)CC4)c3CO2)cc1 (centres unmarked) [NCGC00449862-01],0.00%,0.00%,0.00%,,,0.00%,-12.50%,,
Cc1ccc(C2Cn3cnc(C(=O)N4CCC(C(=O)NCCCc5ccccc5)CC4)c3CO2)cc1 (centres unmarked) [NCGC00449897-01],151.61%,-10.39%,-69.05%,5.01,0.00988 mM,0.00%,0.00%,,
O=C(NC1CCCCCC1)C1CCN(C(=O)c2ncn3c2COC(c2ccc(F)cc2)C3)CC1 (centres unmarked) [NCGC00449809-01],14.91%,0.00%,-10.94%,,,0.00%,0.00%,,
O=C(NCc1ccccc1F)C1CCN(C(=O)c2ncn3c2COC(c2ccc(F)cc2)C3)CC1 (centres unmarked) [NCGC00449818-01],27.35%,0.00%,-20.04%,,,0.00%,0.00%,,
CC(NC(=O)C1CCN(C(=O)c2ncn3c2COC(c2ccc(F)cc2)C3)CC1)c1ccc(F)cc1 (centres unmarked) [NCGC00449825-01],0.00%,0.00%,0.00%,,,0.00%,0.00%,,
CC(C)c1ccc(NC(=O)C2CCN(C(=O)c3ncn4c3COC(c3ccc(F)cc3)C4)CC2)cc1 (centres unmarked) [NCGC00449927-01],35.93%,0.00%,-23.88%,4.86,0.0139 mM,0.00%,0.00%,,
CCc1ccc(NC(=O)C2CCN(C(=O)c3ncn4c3COC(c3ccccc3)C4)CC2)cc1 (centres unmarked) [NCGC00449907-01],288.22%,0.00%,-99.55%,5.16,0.00699 mM,0.00%,0.00%,,
O=C(NCc1ccc(F)c(Cl)c1)C1CCN(C(=O)c2ncn3c2COC(c2ccccc2)C3)CC1 (centres unmarked) [NCGC00449790-01],237.76%,0.00%,-95.32%,,,0.00%,-17.00%,5.46,0.0035 mM
COc1ccc(C2Cn3cnc(C(=O)N4CCC(C(=O)NCc5ccc(C)cc5)CC4)c3CO2)cc1 (centres unmarked) [NCGC00449866-01],0.00%,-10.00%,0.00%,,,0.00%,-22.39%,,
